{
  "source": "paper PMC2694132",
  "about": "(Cancer research, 2009)",
  "key": {"[1]": {"biological_target": "T1, UGT1A3 (Homo sapiens, UniProt P35503)", "T1 sequence (P35503 29-534)": "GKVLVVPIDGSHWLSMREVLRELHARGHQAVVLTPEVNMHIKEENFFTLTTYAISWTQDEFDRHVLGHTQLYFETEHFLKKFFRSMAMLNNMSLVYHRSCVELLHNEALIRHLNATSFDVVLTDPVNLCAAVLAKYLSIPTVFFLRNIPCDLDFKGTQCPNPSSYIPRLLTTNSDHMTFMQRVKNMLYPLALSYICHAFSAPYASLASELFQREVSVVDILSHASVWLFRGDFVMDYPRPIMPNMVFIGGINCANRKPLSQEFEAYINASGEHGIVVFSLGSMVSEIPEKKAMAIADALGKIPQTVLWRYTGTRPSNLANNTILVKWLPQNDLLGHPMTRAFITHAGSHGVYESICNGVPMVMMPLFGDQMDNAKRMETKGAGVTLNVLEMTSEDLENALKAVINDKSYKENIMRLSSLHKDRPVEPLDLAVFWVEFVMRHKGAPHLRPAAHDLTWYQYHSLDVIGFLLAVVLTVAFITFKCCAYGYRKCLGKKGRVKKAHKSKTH", "assay": "SAHA glucuronidation, UGT1A3-overexpressing HEK293 cell homogenate", "format": "in vitro ADME"}, "[2]": {"biological_target": "T2, UGT1A4 (Homo sapiens, UniProt P22310)", "T2 sequence (P22310 29-534)": "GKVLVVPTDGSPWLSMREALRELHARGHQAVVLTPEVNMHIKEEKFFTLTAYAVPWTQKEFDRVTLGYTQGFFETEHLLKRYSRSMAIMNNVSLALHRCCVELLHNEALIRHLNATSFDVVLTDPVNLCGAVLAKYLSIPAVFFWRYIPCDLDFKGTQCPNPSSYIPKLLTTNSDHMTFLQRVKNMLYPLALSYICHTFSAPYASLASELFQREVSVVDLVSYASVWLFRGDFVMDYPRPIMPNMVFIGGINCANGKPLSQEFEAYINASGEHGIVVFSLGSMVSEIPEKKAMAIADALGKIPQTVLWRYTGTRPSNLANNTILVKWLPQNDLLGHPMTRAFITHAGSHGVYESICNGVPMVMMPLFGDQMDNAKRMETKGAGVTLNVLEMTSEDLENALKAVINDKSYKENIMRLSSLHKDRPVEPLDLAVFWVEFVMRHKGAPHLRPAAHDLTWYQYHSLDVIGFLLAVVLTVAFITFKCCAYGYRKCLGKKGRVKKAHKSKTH", "assay": "SAHA glucuronidation screen, UGT1A4-overexpressing cell homogenate", "format": "in vitro ADME"}, "[3]": {"biological_target": "T3, UGT1A8 (Homo sapiens, UniProt Q9HAW9)", "T3 sequence (Q9HAW9 26-530)": "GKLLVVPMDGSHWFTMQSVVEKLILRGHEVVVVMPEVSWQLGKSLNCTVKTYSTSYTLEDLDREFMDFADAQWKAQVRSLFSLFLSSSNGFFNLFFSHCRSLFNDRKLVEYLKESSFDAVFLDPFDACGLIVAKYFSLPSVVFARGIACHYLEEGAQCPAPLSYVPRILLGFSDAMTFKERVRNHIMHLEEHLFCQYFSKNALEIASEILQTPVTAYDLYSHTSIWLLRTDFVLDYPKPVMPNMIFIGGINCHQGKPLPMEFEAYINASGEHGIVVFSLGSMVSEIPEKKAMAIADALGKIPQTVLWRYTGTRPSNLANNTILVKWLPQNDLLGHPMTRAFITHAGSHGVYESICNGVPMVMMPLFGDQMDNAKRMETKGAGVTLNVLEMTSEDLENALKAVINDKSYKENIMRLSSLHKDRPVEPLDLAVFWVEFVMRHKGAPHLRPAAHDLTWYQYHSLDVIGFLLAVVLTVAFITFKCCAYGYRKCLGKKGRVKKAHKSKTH", "assay": "SAHA glucuronidation, wild-type UGT1A8", "format": "in vitro ADME"}, "[4]": {"biological_target": "T4, UGT1A8*3 (UGT1A8p.Cys277Tyr) (Homo sapiens, UniProt Q9HAW9, C277Y)", "T4 sequence (Q9HAW9 26-530 C277Y)": "T3 sequence (Q9HAW9 26-530) with C252Y", "assay": "Glucuronidation, UGT1A8*3 variant cell homogenate", "format": "in vitro ADME", "conditions": "using up to 8 mmol/L SAHA"}, "[5]": {"conditions": "400 μg UGT-overexpressing cell homogenate, 1-h incubation"}},
  "note": "Where a chain is given by its changes, count along the chain named. Entries after “also recorded” stand apart in the source; their conditions may differ.",
  "data": [
    {"molecule": "O=C(CCCCCCC(=O)Nc1ccccc1)NO", "note": "[SAHA, Suberoylanilide hydroxamic acid]", "values": [
      {"measurement": "glucuronidation against SAHA (screen)", "setting": "[1]; [5]", "result": "high levels of glucuronidation"},
      {"measurement": "Km at 1 h", "setting": "[1]; human, UGT1A3-overexpressing HEK293 cell homogenate, pH 7.5", "result": "3.4 ± 0.8", "unit": "mM"},
      {"measurement": "SAHA-glucuronide formation, HLM with one versus two intact UGT2B17 alleles", "setting": "200 μmol/L SAHA", "result": "No difference"},
      {"measurement": "decrease in SAHA-glucuronide formation, UGT2B17 (*2/*2) HLM versus HLM with intact UGT2B17", "setting": "200 μmol/L SAHA, 20 μg HLM protein, 100 subjects", "result": 45, "unit": "%"},
      {"measurement": "increase in KM, UGT2B17 (*2/*2) HLM versus UGT2B17 (*1/*1) HLM", "setting": "13 HLM per genotype, 65 to 8,000 μmol/L SAHA", "result": 75, "unit": "%"},
      {"measurement": "change in Vmax between UGT2B17 genotype subgroups", "setting": "HLM (*1/*1) versus (*2/*2)", "result": "No change"},
      {"measurement": "share of hepatic SAHA glucuronidation from UGT2B17", "setting": "from UGT2B17-deleted versus wild-type HLM", "result": "~ 45%"},
      {"measurement": "glucuronidation against SAHA", "setting": "[2]; [5]", "result": "detectable levels of glucuronidation"},
      {"measurement": "Km at 1 h", "setting": "[2]; human, UGT1A4-overexpressing cell homogenate, pH 7.5", "result": "> 8", "unit": "mM"},
      {"measurement": "glucuronidation against SAHA (screen)", "setting": "[3]; [5]", "result": "high levels of glucuronidation"},
      {"measurement": "Km at 1 h", "setting": "[3]; human, pH 7.5", "result": "1.9 ± 0.1", "unit": "mM"},
      {"measurement": "glucuronidation activity against SAHA", "setting": "[4]", "result": "no detectable glucuronidation activity; also recorded: inactive"}
    ]}
  ]
}
